# Key:
# Assay in all cases: RBC kinase panel
# Type in all cases: biochemical
# Settings in all cases: ATP 10 μM, Data1, Data2
# AKT2 = target: T1, AKT2 (Homo sapiens, UniProt P31751)
# T1 construct: purchased Reaction Biology Corporation
# How it was run: (§1)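 Duplicate determinations were made for each of 369 human kinases exposed to 1 μM compound, with reactions run at 10 μM ATP.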
# BMX/ETK = target: T2, BMX/ETK (Homo sapiens, UniProt P51813)
# T2 construct: purchased Reaction Biology Corporation
# How it was run: as §1
# PDGFRa = target: T3, PDGFRa (Homo sapiens, UniProt P16234)
# T3 construct: purchased Reaction Biology Corporation
# How it was run: as §1
# BMPR2 = target: T4, BMPR2 (Homo sapiens, UniProt Q13873)
# T4 construct: purchased Reaction Biology Corporation
# How it was run: as §1
# KSR1 = target: T5, KSR1 (Homo sapiens, UniProt Q8IVT5)
# T5 construct: purchased Reaction Biology Corporation
# How it was run: as §1
# CLK2 = target: T6, CLK2 (Homo sapiens, UniProt P49760)
# T6 construct: purchased Reaction Biology Corporation
# How it was run: as §1
# ASK1/MAP3K5 = target: T7, ASK1/MAP3K5 (Homo sapiens, UniProt Q99683)
# T7 construct: purchased Reaction Biology Corporation
# How it was run: as §1
# SGK2 = target: T8, SGK2 (Homo sapiens, UniProt Q9HBY8)
# T8 construct: purchased Reaction Biology Corporation
# How it was run: as §1
# Aurora A = target: T9, Aurora A (Homo sapiens, UniProt O14965)
# T9 construct: purchased Reaction Biology Corporation
# T9 sequence (O14965 whole entry): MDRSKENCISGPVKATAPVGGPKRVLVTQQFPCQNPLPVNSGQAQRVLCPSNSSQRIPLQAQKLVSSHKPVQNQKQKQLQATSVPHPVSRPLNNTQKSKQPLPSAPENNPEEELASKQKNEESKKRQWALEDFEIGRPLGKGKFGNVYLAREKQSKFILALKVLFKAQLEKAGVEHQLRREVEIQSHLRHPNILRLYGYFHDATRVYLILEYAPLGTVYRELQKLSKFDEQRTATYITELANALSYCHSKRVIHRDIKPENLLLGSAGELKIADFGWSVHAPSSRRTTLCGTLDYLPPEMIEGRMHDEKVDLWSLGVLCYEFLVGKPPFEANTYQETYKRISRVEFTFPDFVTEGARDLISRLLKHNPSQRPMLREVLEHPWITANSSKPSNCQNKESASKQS
# How it was run: as §1
# PKCd = target: T10, PKCd (Homo sapiens, UniProt Q05655)
# T10 construct: purchased Reaction Biology Corporation
# How it was run: as §1
# MELK = target: T11, MELK (Homo sapiens, UniProt Q14680)
# T11 construct: purchased Reaction Biology Corporation
# How it was run: as §1
# MEK3 = target: T12, MEK3 (Homo sapiens, UniProt P46734)
# T12 construct: purchased Reaction Biology Corporation
# How it was run: as §1
# HPK1/MAP4K1 = target: T13, HPK1/MAP4K1 (Homo sapiens, UniProt Q92918)
# T13 construct: purchased Reaction Biology Corporation
# How it was run: as §1
# JAK3 = target: T14, JAK3 (Homo sapiens, UniProt P52333)
# T14 construct: purchased Reaction Biology Corporation
# T14 sequence (P52333 whole entry): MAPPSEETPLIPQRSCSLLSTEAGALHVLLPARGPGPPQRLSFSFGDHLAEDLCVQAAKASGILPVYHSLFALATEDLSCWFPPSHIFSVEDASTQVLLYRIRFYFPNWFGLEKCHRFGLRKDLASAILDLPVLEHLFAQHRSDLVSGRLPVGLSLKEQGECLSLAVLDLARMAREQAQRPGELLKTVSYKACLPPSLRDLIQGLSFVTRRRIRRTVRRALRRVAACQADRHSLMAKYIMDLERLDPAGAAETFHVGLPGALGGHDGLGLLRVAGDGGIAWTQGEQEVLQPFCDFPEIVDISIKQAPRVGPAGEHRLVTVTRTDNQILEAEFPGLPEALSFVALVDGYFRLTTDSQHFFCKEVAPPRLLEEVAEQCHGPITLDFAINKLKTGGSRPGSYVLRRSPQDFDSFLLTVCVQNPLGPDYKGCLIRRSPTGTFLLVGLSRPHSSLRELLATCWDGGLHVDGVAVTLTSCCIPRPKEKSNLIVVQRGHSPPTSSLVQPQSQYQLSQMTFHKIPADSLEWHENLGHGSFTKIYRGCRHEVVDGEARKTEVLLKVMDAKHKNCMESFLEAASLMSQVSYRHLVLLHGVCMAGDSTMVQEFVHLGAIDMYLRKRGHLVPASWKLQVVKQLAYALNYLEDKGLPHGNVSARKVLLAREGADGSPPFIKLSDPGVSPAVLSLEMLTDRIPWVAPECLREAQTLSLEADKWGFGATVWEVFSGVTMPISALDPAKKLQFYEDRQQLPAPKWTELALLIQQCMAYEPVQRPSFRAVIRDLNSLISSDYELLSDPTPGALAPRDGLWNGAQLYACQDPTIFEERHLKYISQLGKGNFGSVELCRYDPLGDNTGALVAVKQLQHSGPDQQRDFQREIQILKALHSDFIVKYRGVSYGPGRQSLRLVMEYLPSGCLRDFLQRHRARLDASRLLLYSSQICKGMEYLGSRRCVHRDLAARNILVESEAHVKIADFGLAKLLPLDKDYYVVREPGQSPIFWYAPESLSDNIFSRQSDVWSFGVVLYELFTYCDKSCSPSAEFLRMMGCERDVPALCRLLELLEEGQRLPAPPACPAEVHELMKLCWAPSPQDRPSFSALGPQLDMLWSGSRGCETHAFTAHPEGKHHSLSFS
# How it was run: as §1
# Aurora B = target: T15, Aurora B (Homo sapiens, UniProt Q96GD4)
# T15 construct: purchased Reaction Biology Corporation
# T15 sequence (Q96GD4 whole entry): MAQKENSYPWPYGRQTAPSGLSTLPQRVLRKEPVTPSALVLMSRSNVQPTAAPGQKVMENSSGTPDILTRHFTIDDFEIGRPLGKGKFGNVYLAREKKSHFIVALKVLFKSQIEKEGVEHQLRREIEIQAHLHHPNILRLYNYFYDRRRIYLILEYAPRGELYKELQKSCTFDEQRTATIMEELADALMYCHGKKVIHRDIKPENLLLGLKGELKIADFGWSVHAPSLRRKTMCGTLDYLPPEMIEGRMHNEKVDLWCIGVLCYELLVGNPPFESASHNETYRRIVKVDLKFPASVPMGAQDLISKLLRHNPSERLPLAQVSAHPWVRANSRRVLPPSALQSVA
# How it was run: as §1
# SSTK/TSSK6 = target: T16, SSTK/TSSK6 (Homo sapiens, UniProt Q9BXA6)
# T16 construct: purchased Reaction Biology Corporation
# How it was run: as §1
# CLK1 = target: T17, CLK1 (Homo sapiens, UniProt P49759)
# T17 construct: purchased Reaction Biology Corporation
# How it was run: as §1
# PKN3/PRK3 = target: T18, PKN3/PRK3 (Homo sapiens, UniProt Q6P5Z2)
# T18 construct: purchased Reaction Biology Corporation
# T18 sequence (Q6P5Z2 whole entry): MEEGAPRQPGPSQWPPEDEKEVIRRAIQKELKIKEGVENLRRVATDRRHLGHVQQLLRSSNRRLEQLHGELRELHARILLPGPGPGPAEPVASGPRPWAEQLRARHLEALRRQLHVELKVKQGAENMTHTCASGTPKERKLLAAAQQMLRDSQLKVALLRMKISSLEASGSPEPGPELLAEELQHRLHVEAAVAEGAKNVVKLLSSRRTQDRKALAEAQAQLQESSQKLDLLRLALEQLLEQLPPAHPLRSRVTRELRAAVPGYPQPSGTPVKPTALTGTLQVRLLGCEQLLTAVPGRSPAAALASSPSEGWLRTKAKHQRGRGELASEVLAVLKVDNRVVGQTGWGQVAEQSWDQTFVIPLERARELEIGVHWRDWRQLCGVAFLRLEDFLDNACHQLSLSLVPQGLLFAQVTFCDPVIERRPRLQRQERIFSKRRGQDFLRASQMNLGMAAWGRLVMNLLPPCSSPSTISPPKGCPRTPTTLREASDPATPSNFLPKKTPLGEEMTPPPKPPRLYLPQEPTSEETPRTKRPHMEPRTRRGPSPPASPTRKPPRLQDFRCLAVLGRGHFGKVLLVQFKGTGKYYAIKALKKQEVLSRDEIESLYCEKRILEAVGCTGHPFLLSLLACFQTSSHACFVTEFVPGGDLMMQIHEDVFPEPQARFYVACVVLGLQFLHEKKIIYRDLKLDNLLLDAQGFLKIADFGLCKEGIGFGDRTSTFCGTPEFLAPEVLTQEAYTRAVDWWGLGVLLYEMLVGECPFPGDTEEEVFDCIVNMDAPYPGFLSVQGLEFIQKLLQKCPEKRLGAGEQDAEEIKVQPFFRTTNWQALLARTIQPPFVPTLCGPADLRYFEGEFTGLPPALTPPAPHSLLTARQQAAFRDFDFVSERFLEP
# How it was run: as §1
# TYRO3/SKY = target: T19, TYRO3/SKY (Homo sapiens, UniProt Q06418)
# T19 construct: purchased Reaction Biology Corporation
# T19 sequence (Q06418 41-890): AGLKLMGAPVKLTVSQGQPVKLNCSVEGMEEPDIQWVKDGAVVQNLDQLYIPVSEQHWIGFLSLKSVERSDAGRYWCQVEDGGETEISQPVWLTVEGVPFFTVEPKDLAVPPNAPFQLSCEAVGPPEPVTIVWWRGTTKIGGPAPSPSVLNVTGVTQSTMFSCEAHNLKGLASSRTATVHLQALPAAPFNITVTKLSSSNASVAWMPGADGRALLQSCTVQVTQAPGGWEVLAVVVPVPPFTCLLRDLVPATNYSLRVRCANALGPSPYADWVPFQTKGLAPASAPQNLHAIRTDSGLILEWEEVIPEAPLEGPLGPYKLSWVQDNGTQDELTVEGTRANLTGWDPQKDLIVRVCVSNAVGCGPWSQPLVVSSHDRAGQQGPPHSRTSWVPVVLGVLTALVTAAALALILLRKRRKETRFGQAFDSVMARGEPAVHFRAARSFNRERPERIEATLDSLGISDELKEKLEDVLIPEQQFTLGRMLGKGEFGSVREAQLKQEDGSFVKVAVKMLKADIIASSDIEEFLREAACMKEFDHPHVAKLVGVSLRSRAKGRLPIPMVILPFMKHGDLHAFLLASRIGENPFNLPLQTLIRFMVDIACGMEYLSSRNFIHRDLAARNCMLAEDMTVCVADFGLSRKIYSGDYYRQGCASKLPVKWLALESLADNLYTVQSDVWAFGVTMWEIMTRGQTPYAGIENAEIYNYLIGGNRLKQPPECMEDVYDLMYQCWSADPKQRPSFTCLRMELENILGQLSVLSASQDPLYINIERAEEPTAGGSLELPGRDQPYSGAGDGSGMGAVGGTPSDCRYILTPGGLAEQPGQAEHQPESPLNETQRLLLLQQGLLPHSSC
# How it was run: as §1
# TSSK2 = target: T20, TSSK2 (Homo sapiens, UniProt Q96PF2)
# T20 construct: purchased Reaction Biology Corporation
# How it was run: as §1
# TTBK1 = target: T21, TTBK1 (Homo sapiens, UniProt Q5TCY1)
# T21 construct: purchased Reaction Biology Corporation
# How it was run: as §1
# ULK1 = target: T22, ULK1 (Homo sapiens, UniProt O75385)
# T22 construct: purchased Reaction Biology Corporation
# How it was run: as §1
# MLK2/MAP3K10 = target: T23, MLK2/MAP3K10 (Homo sapiens, UniProt Q02779)
# T23 construct: purchased Reaction Biology Corporation
# T23 sequence (Q02779 whole entry): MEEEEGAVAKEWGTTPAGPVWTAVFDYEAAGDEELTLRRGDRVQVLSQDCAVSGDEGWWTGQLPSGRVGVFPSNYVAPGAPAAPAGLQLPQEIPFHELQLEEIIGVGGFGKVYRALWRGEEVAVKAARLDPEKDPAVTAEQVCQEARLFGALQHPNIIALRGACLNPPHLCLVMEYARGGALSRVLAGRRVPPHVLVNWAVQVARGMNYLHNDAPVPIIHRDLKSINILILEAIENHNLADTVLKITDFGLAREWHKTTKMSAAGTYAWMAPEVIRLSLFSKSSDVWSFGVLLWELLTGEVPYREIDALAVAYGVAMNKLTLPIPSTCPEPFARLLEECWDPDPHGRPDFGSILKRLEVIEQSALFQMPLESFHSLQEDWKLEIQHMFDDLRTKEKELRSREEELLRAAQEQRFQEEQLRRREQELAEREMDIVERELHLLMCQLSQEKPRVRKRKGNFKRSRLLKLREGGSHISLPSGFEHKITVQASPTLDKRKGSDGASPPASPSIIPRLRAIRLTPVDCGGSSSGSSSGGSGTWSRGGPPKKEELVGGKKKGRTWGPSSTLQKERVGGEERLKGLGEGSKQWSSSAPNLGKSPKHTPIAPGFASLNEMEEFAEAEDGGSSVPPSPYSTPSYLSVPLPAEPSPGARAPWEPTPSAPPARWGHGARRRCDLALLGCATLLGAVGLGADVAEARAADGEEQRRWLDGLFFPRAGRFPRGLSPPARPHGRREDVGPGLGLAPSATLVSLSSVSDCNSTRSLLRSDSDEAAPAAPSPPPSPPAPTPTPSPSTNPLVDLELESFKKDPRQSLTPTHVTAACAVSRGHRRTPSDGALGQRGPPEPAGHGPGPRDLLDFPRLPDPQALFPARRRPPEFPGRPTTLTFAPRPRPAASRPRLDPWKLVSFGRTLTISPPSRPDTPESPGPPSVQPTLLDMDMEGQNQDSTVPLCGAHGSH
# How it was run: as §1
# PKN1/PRK1 = target: T24, PKN1/PRK1 (Homo sapiens, UniProt Q16512)
# T24 construct: purchased Reaction Biology Corporation
# How it was run: as §1
# GRK6 = target: T25, GRK6 (Homo sapiens, UniProt P43250)
# T25 construct: purchased Reaction Biology Corporation
# How it was run: as §1
# DLK/MAP3K12 = target: T26, DLK/MAP3K12 (Homo sapiens, UniProt Q12852)
# T26 construct: purchased Reaction Biology Corporation
# How it was run: as §1
# CAMKK2 = target: T27, CAMKK2 (Homo sapiens, UniProt Q96RR4)
# T27 construct: purchased Reaction Biology Corporation
# How it was run: as §1
# Haspin = target: T28, Haspin (Homo sapiens, UniProt Q8TF76)
# T28 construct: purchased Reaction Biology Corporation
# How it was run: as §1
# DYRK4 = target: T29, DYRK4 (Homo sapiens, UniProt Q9NR20)
# T29 construct: purchased Reaction Biology Corporation
# How it was run: as §1
# MKK4 = target: T30, MKK4 (Homo sapiens, UniProt P45985)
# T30 construct: purchased Reaction Biology Corporation
# How it was run: as §1
# FGR = target: T31, FGR (Homo sapiens, UniProt P09769)
# T31 construct: purchased Reaction Biology Corporation
# How it was run: as §1
# STK16 = target: T32, STK16 (Homo sapiens, UniProt O75716)
# T32 construct: purchased Reaction Biology Corporation
# T32 sequence (O75716 whole entry): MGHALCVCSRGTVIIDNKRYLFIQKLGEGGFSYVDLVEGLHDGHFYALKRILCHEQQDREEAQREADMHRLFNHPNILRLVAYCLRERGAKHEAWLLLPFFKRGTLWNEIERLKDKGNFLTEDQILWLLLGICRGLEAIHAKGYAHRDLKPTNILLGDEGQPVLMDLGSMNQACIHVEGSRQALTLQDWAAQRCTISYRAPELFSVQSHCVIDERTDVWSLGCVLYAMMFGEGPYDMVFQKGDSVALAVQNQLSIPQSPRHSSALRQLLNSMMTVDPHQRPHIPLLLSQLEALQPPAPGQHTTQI
# How it was run: as §1
# BRAF = target: T33, BRAF (Homo sapiens, UniProt P15056)
# T33 construct: purchased Reaction Biology Corporation
# How it was run: as §1
compound,measurement,setting,value
"CC(=O)Nc1nc2ccc(-c3cnc(C)c(NC(=O)OC4CCCCC4)c3)cc2s1 [PK68, cyclohexyl (5-(2-acetamidobenzo[d]thiazol-6-yl)-2-methylpyridin-3-yl)carbamate]",Activity%,AKT2; 1 μM,96.89%
same,activity at 1 µM,AKT2,97.5%
same,Activity%,BMX/ETK; 1 μM,99.71%
same,activity at 1 µM,BMX/ETK,99.9%
same,Activity%,PDGFRa; 1 μM,83.70%
same,activity at 1 µM,PDGFRa,84.1%
same,Activity%,BMPR2; 1 μM,95.12%
same,activity at 1 µM,BMPR2,95.5%
same,Activity%,KSR1; 1 μM,101.02%
same,activity at 1 µM,KSR1,102%
same,Activity%,CLK2; 1 μM,77.67%
same,activity at 1 µM,CLK2,80.5%
same,Activity%,ASK1/MAP3K5; 1 μM,93.46%
same,activity at 1 µM,ASK1/MAP3K5,95.2%
same,Activity%,SGK2; 1 μM,99.97%
same,activity at 1 µM,SGK2,101%
same,Activity%,Aurora A; 1 μM,95.24%
same,activity at 1 µM,Aurora A,95.4%
same,Activity%,PKCd; 1 μM,100.58%
same,activity at 1 µM,PKCd,101%
same,Activity%,MELK; 1 μM,100.40%
same,activity at 1 µM,MELK,102%
same,Activity%,MEK3; 1 μM,99.61%
same,activity at 1 µM,MEK3,99.7%
same,Activity%,HPK1/MAP4K1; 1 μM,98.32%
same,activity at 1 µM,HPK1/MAP4K1,101%
same,Activity%,JAK3; 1 μM,92.17%
same,activity at 1 µM,JAK3,92.9%
same,Activity%,Aurora B; 1 μM,83.50%
same,activity at 1 µM,Aurora B,83.7%
same,Activity%,SSTK/TSSK6; 1 μM,91.18%
same,activity at 1 µM,SSTK/TSSK6,91.3%
same,Activity%,CLK1; 1 μM,80.72%
same,activity at 1 µM,CLK1,81.9%
same,Activity%,PKN3/PRK3; 1 μM,92.58%
same,activity at 1 µM,PKN3/PRK3,94.1%
same,Activity%,TYRO3/SKY; 1 μM,97.95%
same,activity at 1 µM,TYRO3/SKY,99.6%
same,Activity%,TSSK2; 1 μM,97.17%
same,activity at 1 µM,TSSK2,98.1%
same,Activity%,TTBK1; 1 μM,107.17%
same,activity at 1 µM,TTBK1,110%
same,Activity%,ULK1; 1 μM,100.13%
same,activity at 1 µM,ULK1,105%
same,Activity%,MLK2/MAP3K10; 1 μM,55.63%
same,activity at 1 µM,MLK2/MAP3K10,57%
same,Activity%,PKN1/PRK1; 1 μM,96.02%
same,activity at 1 µM,PKN1/PRK1,97.8%
same,Activity%,GRK6; 1 μM,99.89%
same,activity at 1 µM,GRK6,102%
same,Activity%,DLK/MAP3K12; 1 μM,94.64%
same,activity at 1 µM,DLK/MAP3K12,103%
same,Activity%,CAMKK2; 1 μM,79.89%
same,activity at 1 µM,CAMKK2,80.1%
same,Activity%,Haspin; 1 μM,94.31%
same,activity at 1 µM,Haspin,94.5%
same,Activity%,DYRK4; 1 μM,102.24%
same,activity at 1 µM,DYRK4,102%
same,Activity%,MKK4; 1 μM,98.91%
same,activity at 1 µM,MKK4,99.1%
same,Activity%,FGR; 1 μM,82.32%
same,activity at 1 µM,FGR,87.2%
same,Activity%,STK16; 1 μM,85.85%
same,activity at 1 µM,STK16,88.2%
same,Activity%,BRAF; 1 μM,83.61%
same,activity at 1 µM,BRAF,84.8%
